Laboratory results from PubChem BioAssay (NCI).
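Grown in 96-well plates, cells were treated for 48 hours with each compound at five concentrations. Insufficient inhibition: endpoint recorded as highest concentration tested. At the GI50, growth is halved. TGI: total growth inhibition.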

Experiments:
Experiment in all cases: NCI-60 cell line screen, 48 h
[1] = test system: HOP-92 NSCLC
[2] = test system: OVCAR-4 ovarian
[3] = test system: K-562 leukemia
[4] = test system: DU-145 prostate
[5] = test system: SNB-75 CNS
[6] = test system: KM12 colon
[7] = test system: SR leukemia
[8] = test system: HCT-15 colon
[9] = test system: SK-MEL-5 melanoma
[10] = test system: COLO 205 colon
[11] = test system: NCI-H226 lung
[12] = test system: UACC-257 melanoma
[13] = test system: A549 NSCLC
[14] = test system: NCI-H23 lung
[15] = test system: M14 melanoma
[16] = test system: LOX IMVI melanoma
[17] = test system: A498 renal
[18] = test system: IGROV1 ovarian
[19] = test system: MCF7 breast
[20] = test system: SF-539 CNS
[21] = test system: CCRF-CEM leukemia
[22] = test system: OVCAR-8 ovarian
[23] = test system: BT-549 breast
[24] = test system: SNB-19 CNS
[25] = test system: MDA-MB-231 breast
[26] = test system: UO-31 renal
[27] = test system: SN12C renal
[28] = test system: SF-295 CNS
[29] = test system: SW-620 colon
[30] = test system: SK-MEL-2 melanoma
[31] = test system: SK-OV-3 ovarian
[32] = test system: UACC-62 melanoma
[33] = test system: MALME-3M melanoma
[34] = test system: EKVX NSCLC
[35] = test system: RXF 393 renal
[36] = test system: HOP-62 NSCLC
[37] = test system: HS 578T breast
[38] = test system: T-47D breast
[39] = test system: ACHN renal
[40] = test system: 786-0 renal
[41] = test system: PC-3 prostate
[42] = test system: HCC-2998 colon
[43] = test system: MOLT-4 leukemia
[44] = test system: TK-10 renal
[45] = test system: CAKI-1 renal
[46] = test system: NCI/ADR-RES ovarian
[47] = test system: U251 CNS
[48] = test system: SK-MEL-28 melanoma
[49] = test system: HT29 colon
[50] = test system: OVCAR-3 ovarian
[51] = test system: OVCAR-5 ovarian
[52] = test system: RPMI-8226 leukemia
[53] = test system: NCI-H460 lung
[54] = test system: HCT-116 colon
[55] = test system: SF-268 CNS
[56] = test system: HL-60(TB) leukemia
[57] = test system: MDA-MB-435
[58] = test system: NCI-H522 lung

CCOC(=O)c1c2c(n(Cc3ccccc3)c1C)-c1nc(Cc3ccccc3)[nH]c1C(=O)C2=O
GI50 [1]: 1.17 µM | TGI [1]: 2.45 µM | GI50 [2]: 1.03 µM | TGI [2]: 2.76 µM | GI50 [3]: 1.85 µM | TGI [3]: 4.05 µM | GI50 [4]: 1.58 µM | TGI [4]: 2.92 µM | GI50 [5]: 1.49 µM | TGI [5]: 2.81 µM | GI50 [6]: 1.83 µM | TGI [6]: 3.83 µM | GI50 [7]: 1.65 µM | TGI [7]: 4.02 µM | GI50 [8]: 1.59 µM | TGI [8]: 2.94 µM | GI50 [9]: 1.69 µM | TGI [9]: 3.06 µM | GI50 [10]: 1.83 µM | TGI [10]: 3.33 µM | GI50 [11]: 1.67 µM | TGI [11]: 4.39 µM | GI50 [12]: 2.82 µM | TGI [12]: 8.71 µM | GI50 [13]: 2.5 µM | TGI [13]: 7.15 µM | GI50 [14]: 1.82 µM | TGI [14]: 3.59 µM | GI50 [15]: 1.75 µM | TGI [15]: 3.49 µM | GI50 [16]: 1.78 µM | TGI [16]: 3.17 µM | GI50 [17]: 1.74 µM | TGI [17]: 3.17 µM | GI50 [18]: 1.24 µM | TGI [18]: 2.68 µM | GI50 [19]: 1.66 µM | TGI [19]: 4.34 µM | GI50 [20]: 1.77 µM | TGI [20]: 3.3 µM | GI50 [21]: 0.962 µM | TGI [21]: 2.97 µM | GI50 [22]: 2.03 µM | TGI [22]: 4.99 µM | GI50 [23]: 1.43 µM | TGI [23]: 2.99 µM | GI50 [24]: 1.72 µM | TGI [24]: 3.09 µM | GI50 [25]: 1.37 µM | TGI [25]: 2.67 µM | GI50 [26]: 1.32 µM | TGI [26]: 2.64 µM | GI50 [27]: 1.58 µM | TGI [27]: 3.21 µM | GI50 [28]: 1.92 µM | TGI [28]: 4.14 µM | GI50 [29]: 1.84 µM | TGI [29]: 3.28 µM | GI50 [30]: 1.69 µM | TGI [30]: 4.13 µM | GI50 [31]: 2.31 µM | TGI [31]: 5.19 µM | GI50 [32]: 1.74 µM | TGI [32]: 3.55 µM | GI50 [33]: 1.61 µM | TGI [33]: 3.26 µM | GI50 [34]: 1.84 µM | TGI [34]: 3.27 µM | GI50 [35]: 0.87 µM | TGI [35]: 2.34 µM | GI50 [36]: 1.75 µM | TGI [36]: 3.45 µM | GI50 [37]: 2.26 µM | TGI [37]: 5.34 µM | GI50 [38]: 0.496 µM | TGI [38]: 2.64 µM | GI50 [39]: 1.64 µM | TGI [39]: 3 µM | GI50 [40]: 1.77 µM | TGI [40]: 3.29 µM | GI50 [41]: 1.45 µM | TGI [41]: 3.2 µM | GI50 [42]: 2.6 µM | TGI [42]: 4.09 µM | GI50 [43]: 2.13 µM | TGI [43]: 5.41 µM | GI50 [44]: 1.48 µM | TGI [44]: 3.08 µM | GI50 [45]: 0.673 µM | TGI [45]: 2.18 µM | GI50 [46]: 2.51 µM | TGI [46]: 5.28 µM | GI50 [47]: 1.77 µM | TGI [47]: 3.15 µM | GI50 [48]: 2 µM | TGI [48]: 3.42 µM | GI50 [49]: 1.64 µM | TGI [49]: 3 µM | GI50 [50]: 1.13 µM | TGI [50]: 2.47 µM | GI50 [51]: 1.98 µM | TGI [51]: 3.62 µM | GI50 [52]: 1.78 µM | TGI [52]: 4.93 µM | GI50 [53]: 1.96 µM | TGI [53]: 4.22 µM | GI50 [54]: 1.49 µM | TGI [54]: 2.9 µM | GI50 [55]: 1.91 µM | TGI [55]: 4.59 µM

CCCCCCNC(=O)n1cc(F)c(=O)[nH]c1=O
GI50 [1]: 14.8 µM | TGI [1]: 50 µM | GI50 [2]: 14 µM | TGI [2]: 39.1 µM | GI50 [4]: 5.38 µM | TGI [4]: > 100 µM | GI50 [5]: 7.51 µM | TGI [5]: 43 µM | GI50 [6]: 4.43 µM | TGI [6]: > 100 µM | GI50 [7]: 1.44 µM | TGI [7]: 21.3 µM | GI50 [8]: 4.26 µM | TGI [8]: 28.7 µM | GI50 [9]: 3.54 µM | TGI [9]: 27.1 µM | GI50 [10]: 2.09 µM | TGI [10]: 18.4 µM | GI50 [11]: 10.6 µM | TGI [11]: 23.3 µM | GI50 [12]: 4.22 µM | TGI [12]: 26.4 µM | GI50 [13]: 0.738 µM | TGI [13]: > 100 µM | GI50 [14]: 6.26 µM | TGI [14]: 49.1 µM | GI50 [15]: 7.77 µM | TGI [15]: 23.9 µM | GI50 [16]: 2.06 µM | TGI [16]: 16.3 µM | GI50 [17]: 18 µM | TGI [17]: > 100 µM | GI50 [19]: 0.65 µM | TGI [19]: 16.8 µM | GI50 [20]: 0.514 µM | TGI [20]: 15.1 µM | GI50 [21]: 3.2 µM | TGI [21]: 26.7 µM | GI50 [22]: 3.29 µM | TGI [22]: 24.1 µM | GI50 [23]: 2.56 µM | TGI [23]: 24.9 µM | GI50 [56]: 6.84 µM | TGI [56]: 30.6 µM | GI50 [24]: 7.48 µM | TGI [24]: 56.3 µM | GI50 [25]: 10.2 µM | TGI [25]: 24.5 µM | GI50 [27]: 4.29 µM | TGI [27]: 24.3 µM | GI50 [29]: 3.48 µM | TGI [29]: 20.7 µM | GI50 [30]: 12 µM | TGI [30]: 35.2 µM | GI50 [31]: 11.1 µM | TGI [31]: 91.1 µM | GI50 [32]: 2.8 µM | TGI [32]: 25 µM | GI50 [57]: 1.21 µM | TGI [57]: 24.2 µM | GI50 [34]: 21.1 µM | TGI [34]: > 100 µM | GI50 [35]: 6.22 µM | TGI [35]: 20.3 µM | GI50 [36]: 7.09 µM | TGI [36]: 21.5 µM | GI50 [37]: 52 µM | TGI [37]: > 100 µM | GI50 [38]: 11.7 µM | TGI [38]: 47.5 µM | GI50 [39]: 4.86 µM | TGI [39]: 23 µM | GI50 [40]: 10.6 µM | TGI [40]: 23.4 µM | GI50 [41]: 10.1 µM | TGI [41]: 27.3 µM | GI50 [42]: 0.287 µM | TGI [42]: 18.4 µM | GI50 [43]: 7.28 µM | TGI [43]: 44.2 µM | GI50 [44]: 4.71 µM | TGI [44]: 22.7 µM | GI50 [45]: 1.64 µM | TGI [45]: 18.4 µM | GI50 [46]: 12 µM | TGI [46]: 92.5 µM | GI50 [47]: 4.27 µM | TGI [47]: 17.5 µM | GI50 [48]: 3.96 µM | TGI [48]: 27.7 µM | GI50 [49]: 2.43 µM | TGI [49]: 19.3 µM | GI50 [50]: 11.1 µM | TGI [50]: > 100 µM | GI50 [51]: 12.8 µM | TGI [51]: 37.2 µM | GI50 [58]: 10.7 µM | TGI [58]: 25 µM | GI50 [52]: 2.38 µM | TGI [52]: 32.2 µM | GI50 [53]: 0.564 µM | TGI [53]: 17.7 µM | GI50 [54]: 1.99 µM | TGI [54]: 15.3 µM | GI50 [55]: 9.07 µM | TGI [55]: 87.9 µM
